In experiment [1] the test system is luteinizing hormone (LH) secretion. The following applies: cited from earlier work. From the text: G-protein-coupled receptors (GPCRs) are the largest family of cell surface receptors that communicate extracellular stimuli to the cell interior[1]. Biased ligands are of particular interest because they offer the possibility to design a novel class of therapeutic agents. In some GPCRs, biased ligands that preferentially activate G-protein-dependent signaling have therapeutic potential. […] Most descriptions of biased ag ...

Experiment [2] concerns Galr2–β-arrestin2–clathrin complex. As to the kind of experiment: β-arrestin2–clathrin interactions (NanoBit). The experiment is classed as cell-based, human. To be noted: 30 μM cmpd101 (GRK2/3 inhibitor) pretreatment; 10 μM agonist. From the text:
The interaction between β-arrestin2 and clathrin induced by the activation of Galr2 was examined using the NanoBit technology. We measured real-time association of the protein complex Galr2–β-arrestin2–clathrin. We constructed β-arrestin2 and clathrin subunit A tagged with LgBit or SmBit at the C or N termini and screened eight different plasmid combinations, out of which only one combination (β-arrestin2–LgBit:SmBit–clathrin) responded to ligand stimulation (Fig. 3, Supplementary Fig. 3). Before ligand stimulation, Galr2, β-arrestin2, and clathrin were not in close proximity and so the basal luminescence was very low. […] A time course experiment was initially performed to determine the time at which the maximal increase in luminescence occurred following agonist stimulation. All ligands except for Fmoc-dA4-dQ14 induced different fold increase in luminescence immediately after ligand treatment (Fig. 3b). […] Galanin- and Spexin-induced increases in luminescence were attenuated by pretreatment of cmpd101, a G-protein-coupled receptor kinase 2/3 (GRK2/3) inhibitor, indicating contribution of GRK2/3 in the formation of Galr2–β-arrestin2–clathrin complex (Fig. 3).
The arrows indicate the time when the cells were treated with different ligands. […] The results are expressed as mean ± s.e.m. of three experiments performed in triplicate. Each triplicate was averaged before calculating the s.e.m.
(§1) Quantification of bias between each pathway was performed using Galanin as a reference ligand. All incubations for the different signaling assays were performed in serum-free medium to prevent peptide degradation.
One day before transfection, cells were seeded in 96-well plates at a density of 2.5 × 10^4 cells per well. A mixture containing 35 ng β-arrestin construct containing the LgBit or SmBit, 35 ng clathrin subunit A containing one of the two domains of Nluc and 30 ng untagged receptor, and 0.2 μl Lipofectamine 2000 (Invitrogen) was prepared and added to each well. We followed the assay manufacturer’s instructions and tested eight β-arrestin-clathrin plasmid combinations. In only one plasmid combination we were able to observe luminescent signal and it was chosen for further experiments. At 24 h post transfection, medium was aspirated and replaced with 100 μl OPTIMEM at room temperature. After a 10-min incubation, 25 μl substrate (furimazine) was added and the luminescence was monitored once every minute for 10 min. Then, 10 μl ligand was added to each well and the luminescence values were recorded immediately and once every minute for 1 h (Synergy 2 Multi-Mode Microplate Reader BioTek).

Experiment [3] relates to Galr2. Description: Galr2 internalization assay based on HiBiT technology. The class given is cell-based, human. To be noted: 30 μM Cmpd101 30 min; 25 μM PitStop 2 (clathrin) 15 min; 80 μM Dynasore (dynamin) 40 min; Galanin 30 min. As for the experimental part: The HiBiT protein tagging system, like NanoBiT technology, consists of two subunits: the large fragment (LgBiT) with 156 amino acids and the small fragment of Nluc (SmBiT-High-affinity) with only 11 amino acids that has a very high affinity to LgBit. To quantify Galr2 at the cell surface, cells expressing Galr2 tagged with the SmBiT-High-affinity were treated with cell-impermeable LgBiT along with the Nluc substrate furimazine. SmBiT-High-affinity-Galr2 on the cell surface binds to LgBiT which produces a luminescent signal, while SmBiT-High-affinity-Galr2 inside the cells cannot bind to LgBiT (Fig. 4a).
Fig. 4 Internalization of Galr2. a Schematic representation of the internalization assay. […] Before ligand stimulation, cells were pretreated with 30 μM Cmpd101 (a GRK2/3 inhibitor) for 30 min, 25 μM PitStop 2 (a Clathrin inhibitor) for 15 min, and 80 μM Dynasore (a Dynamin inhibitor) for 40 min. […] Remaining cell surface receptors were determined by measuring the luminescent signal produced by the binding between LgBiT and the Galr2-SmBiT-High affinity. Each data point represents mean ± s. e. m. of two independent experiments performed in triplicate
as §1
Internalization assays were performed using the Nano-Glo HiBiT extracellular detection system acquired from Promega Corporation (Cat. No. N2421). The day before transfection, HEK293 cells were seeded in 96-well plates at a density of 2.5 × 10^4 cells per well. The following day, cells were transfected with a mixture prepared containing 0.5 ng of SmBiT-high-affinity-Galr2 construct and 0.2 μl Lipofectamine 2000 (Invitrogen) added to each well. […] Then luminescence values were recorded immediately (Synergy 2 Multi-Mode Microplate Reader BioTek). […]
On the technique in general: HiBiT is a short tag that completes a luciferase, so light tracks the accessible tagged protein.

For “galanin-like peptide: galanin-like peptide, a Galanin paralog (APAHRGRGGWTLNSAGYLLGPVLHLPQMGDQDGKRETALEILDLWKAIDGLPYSHPPQPS; Galanin-like peptide; UniProt Q9UBC7 25-84, looked up)”, the “LH secretion, rat” value in experiment [1] was “stimulates luteinizing hormone (LH) secretion”.
As to `Cn1c(CNc2cccc(C(=O)NCc3ccccc3C(F)(F)F)c2)nnc1-c1ccncc1` [cmpd101, reference compound], the “effect of pretreatment on Galanin- and Spexin-induced β-arrestin2–clathrin luminescence increase” value in experiment [2] was “attenuated”. In addition, the “effect of inhibitor on Galanin-induced Galr2 internalization” value in experiment [3] was “partially blocked”.

The values above are taken from publication PMC6123711, “Conformational signatures in β-arrestin2 reveal natural biased agonism at a G-protein-coupled receptor” (Communications Biology, 2018).
